Measurements reported in patent US11541006B2, “Aqueous formulation for insoluble drugs” (priority 2018, dated 2023).
≈ marks a conversion by molar mass, not a printed value. Structures can show the parent of a compound that is named as a salt. Each block holds one molecule with its values, some of them ahead of it.

What was measured:
[1] = Solubility of insoluble drugs in F96 LMBW vehicle (Example 4); assay type: physicochemical; conditions: for solubility: aqueous with cosolvent or surfactant or cyclodextrin, thermodynamic from solid
Text: Twenty-two (22) insoluble drugs having a wide variety of chemical structures (including chemical element, small molecule, peptide and protein), properties and biological activities (including drugs, diagnostic agents and nutritional supplement agents) were selected and tested for solubility in F96 LMBW vehicle as follows: • 1. Measure out a fixed amount of F96 vehicle. • 2. Add a known amount of an insoluble drug substance. • 3. Mix to dissolve the drug substance. • 4. […] Record the maximum amount of the insoluble drug substance that the F96 LMBW vehicle could dissolve and use this value to calculate the drug's solubility in the F96 LMBW vehicle.

[2] = cited from earlier work; for Solubility according to USP definition: in water
[3] = Solubility of insoluble drugs in 16% SBECD aqueous solution (Example 27); conditions: for solubility: 16% SBECD aqueous solution, aqueous with cosolvent or surfactant or cyclodextrin, thermodynamic from solid; for Measured solubility in 16% SBECD: 16% sulfobutyl ether beta cyclodextrin aqueous solution
Text: Add a known amount of an insoluble drug substance. • 3. Mix to dissolve the drug substance. • 4.

[4] = Solubility of disease-related insoluble solids in LMBW vehicle and PBS (Example 29); assay type: physicochemical; conditions: for solubility: thermodynamic from solid
Text: These solids have very low solubility in the body fluids and therefore they have a high tendency to precipitate and to form the undesirable solid deposits in vivo. […] Weigh out a fixed amount of a solid of interest, • 2. […] Mix to dissolve the solid, • 4. If the solid has completely dissolved, add more until it is no longer dissolving in the vehicle • 5.

[5] = Voriconazole solubility in LMBW versus binary/ternary mixtures of L, M, B and alcohol (Example 2); assay type: physicochemical; conditions: thermodynamic from solid
Procedure: For this study, voriconazole was used as the insoluble drug.
To determine solubility in each combination, voriconazole was added to each combination and mixed until it no longer would dissolve. For each mixture, the pH was adjusted to pH 4.5-5, equilibrated at room temperature, and then passed through a 0.2-micron filter. The filtrate was analyzed by HPLC for voriconazole concentration. Each HPLC-determined voriconazole concentration is noted as a “Voriconazole solubility” in the tables below.

[6] = Voriconazole stability versus pH and predicted F96 shelf life T90 (separate study); assay type: physicochemical
[7] = physchem; conditions: for Appearance of the undiluted solutions / Appearance of the solutions after being diluted in an IV infusion fluid: RT, 24 hours; for Appearance of the solutions after being diluted in an IV infusion fluid: diluted to about 0.5 to 5 mg/mL
Procedure: Different amounts of voriconazole (20 to 60 mg/mL) were first dissolved in F145V and subsequently diluted in an IV infusion fluid, such as normal saline (NS), 5% dextrose in water (D5W), water for injection (WFI), or Lactated Ringers solution, to a final voriconazole concentration of about 0.5 to 5 mg/mL.

- solubility [1]: 12700 µg/mL (≈ 23.8 mM)
- solubility [3]: 150 µg/mL (≈ 0.281 mM)
Molecule: C[C@@H](O[C@H]1OCCN(Cc2n[nH]c(=O)[nH]2)[C@H]1c1ccc(F)cc1)c1cc(C(F)(F)F)cc(C(F)(F)F)c1 [Aprepitant]
- Solubility according to USP definition [2]: Practically
- Reported solubility in water ([2]; water): <0.0001 mg/mL

- solubility [1]: 7300 µg/mL (≈ 19.1 mM)
- solubility [3]: 1030 µg/mL (≈ 2.7 mM)
Molecule: Cc1ccc(-c2cc(C(F)(F)F)nn2-c2ccc(S(N)(=O)=O)cc2)cc1 [Celecoxib]
- Solubility according to USP definition [2]: Very poorly
- Reported solubility in water ([2]; water): 0.001-0.0001 mg/mL

Molecule: O=c1[nH]c(=O)c2[nH]c([O-])nc2[nH]1.[Na+] [Mono sodium urate]
- Solubility in PBS ([4]; phosphate buffered saline): <1 µg/mL
- Measured solubility in F96 LMBW Vehicle ([4]; vehicle at pH 7): 50 µg/mL

- solubility [1]: 9100 µg/mL (≈ 12.2 mM)
- solubility [3]: 1710 µg/mL (≈ 2.29 mM)
Molecule: CC[C@H]1OC(=O)[C@H](C)[C@@H](O[C@H]2C[C@@](C)(OC)[C@@H](O)[C@H](C)O2)[C@H](C)[C@@H](O[C@@H]2O[C@H](C)C[C@H](N(C)C)[C@H]2O)[C@](C)(OC)C[C@@H](C)C(=O)[C@H](C)[C@@H](O)[C@]1(C)O [Clarithromycin]
- Solubility according to USP definition [2]: Practically
- Reported solubility in water ([2]; water): <0.0001 mg/mL

Molecule: CC[C@@]1(O)C(=O)OCc2c1cc1n(c2=O)Cc2cc3ccccc3nc2-1 [Camptothecin]
- solubility [1]: 500 to 1000 µg/mL (≈ 1.44 to 2.87 mM)
- Solubility according to USP definition [2]: Insoluble
- Reported solubility in water ([2]; water): <0.0001 mg/mL
- solubility [3]: 60 µg/mL (≈ 0.172 mM)

Molecule: CC(C)c1cccc(C(C)C)c1O [Propofol]
- solubility [1]: 50800 µg/mL (≈ 285 mM)
- Solubility according to USP definition [2]: Insoluble
- Reported solubility in water ([2]; water): <0.0001 mg/mL
- solubility [3]: 56600 µg/mL (≈ 317 mM)

- solubility [1]: 2400 µg/mL (≈ 2.6 mM)
- solubility [3]: 70 µg/mL (≈ 0.0758 mM)
Molecule: C[C@@H]1[C@H](O)[C@@H](C)/C=C/C=C/C=C/C=C/C=C/C=C/C=C/[C@H](O[C@@H]2O[C@H](C)[C@@H](O)[C@H](N)[C@@H]2O)C[C@@H]2O[C@](O)(C[C@@H](O)C[C@@H](O)[C@H](O)CC[C@@H](O)C[C@@H](O)CC(=O)O[C@H]1C)C[C@H](O)[C@H]2C(=O)O [Amphotericin]
- Solubility according to USP definition [2]: Insoluble
- Reported solubility in water ([2]; water): <0.0001 mg/mL

Molecule: Casein
- Solubility according to USP definition [2]: Very poorly
- Reported solubility in water ([2]; water): 0.001-0.0001 mg/mL
- Measured solubility in 16% SBECD [3]: 150 µg/mL

- solubility [1]: 10000 µg/mL (≈ 50.7 mM)
- solubility [3]: 2130 µg/mL (≈ 10.8 mM)
Molecule: N[C@@H](Cc1ccc(O)c(O)c1)C(=O)O [Levodopa]
- Solubility according to USP definition [2]: Slightly soluble (100-1000)

- solubility [1]: 28200 µg/mL (≈ 62.6 mM)
- solubility [3]: 150 µg/mL (≈ 0.333 mM)
Molecule: CC1=C(C/C=C(\C)CCC[C@H](C)CCC[C@H](C)CCCC(C)C)C(=O)c2ccccc2C1=O [Phytonadione]
- Solubility according to USP definition [2]: Insoluble
- Reported solubility in water ([2]; water): <0.0001 mg/mL

- solubility ([4]; F96 LMBW vehicle, aqueous with cosolvent or surfactant or cyclodextrin, vehicle at pH 7): 25000 µg/mL (≈ 64.7 mM)
- solubility ([4]; phosphate buffered saline, aqueous buffer, read-out: Solubility in PBS): 50 µg/mL (≈ 0.129 mM)
Molecule: CC(C)CCC[C@@H](C)[C@H]1CC[C@H]2[C@@H]3CC=C4C[C@@H](O)CC[C@]4(C)[C@H]3CC[C@]12C [Cholesterol]

- solubility [1]: 53100 µg/mL (≈ 257 mM)
- solubility [3]: 3580 µg/mL (≈ 17.4 mM)
Molecule: CC(C)Cc1ccc(C(C)C(=O)O)cc1 (centres unmarked) [Ibuprofen]
- Solubility according to USP definition [2]: Sparingly

Molecule: CC(=O)O[C@H]1C(=O)[C@@]2(C)[C@H]([C@H](OC(=O)c3ccccc3)[C@]3(O)C[C@H](OC(=O)[C@H](O)[C@@H](NC(=O)c4ccccc4)c4ccccc4)C(C)=C1C3(C)C)[C@]1(OC(C)=O)CO[C@@H]1C[C@@H]2O [Paclitaxel]
- Solubility according to USP definition [2]: Insoluble
- Reported solubility in water ([2]; water): <0.0001 mg/mL

- solubility [1]: 12000 µg/mL (≈ 38.2 mM)
- solubility [3]: 4060 µg/mL (≈ 12.9 mM)
Molecule: CC(=O)[C@H]1CC[C@H]2[C@@H]3CCC4=CC(=O)CC[C@]4(C)[C@H]3CC[C@]12C [Progesterone]
- Solubility according to USP definition [2]: Sparingly
- Reported solubility in water ([2]; water): 0.017 mg/mL

- solubility [1]: 20400 µg/mL
- solubility [3]: 2120 µg/mL
Molecule: CCc1c2c(nc3ccc(OC(=O)N4CCC(N5CCCCC5)CC4)cc13)-c1cc3c(c(=O)n1C2)COC(=O)[C@]3(O)CC [Irinotecan HCl]
- Solubility according to USP definition [2]: Insoluble
- Reported solubility in water ([2]; water): <0.0001 mg/mL

Molecule: CCC(C)n1ncn(-c2ccc(N3CCN(c4ccc(OCC5COC(Cn6cncn6)(c6ccc(Cl)cc6Cl)O5)cc4)CC3)cc2)c1=O (centres unmarked) [Intraconazole]
- Measured solubility in F96 LMBW Vehicle ([1]; stepwise addition until no longer dissolving): 500 to 1000 µg/mL
- Solubility according to USP definition [2]: Insoluble
- Reported solubility in water ([2]; water): <0.0001 mg/mL
- Measured solubility in 16% SBECD [3]: 170 µg/mL

- solubility ([5]; LMBW (lecithin, MCT, bile acid, alcohols in water), pH 4.5, aqueous with cosolvent or surfactant or cyclodextrin): 29400 µg/mL
- solubility ([5]; MCT and alcohols in water), aqueous with cosolvent or surfactant or cyclodextrin, vehicle % wt in water: glycocholic acid 10.6, MCT 15, benzyl alcohol 4.5, ethanol 6.5, emulsion, opaque, pH 4.5-5, RT): 8000 µg/mL
- solubility ([5]; MCT and alcohols in water), aqueous with cosolvent or surfactant or cyclodextrin, vehicle % wt in water: lecithin 25, MCT 15, benzyl alcohol 4.5, ethanol 6.5, emulsion, opaque, pH 4.5-5, RT): 19800 µg/mL
- solubility ([5]; alcohol solution (benzyl alcohol and ethanol in water), pH 4.5, aqueous with cosolvent or surfactant or cyclodextrin): 1100 µg/mL
- solubility ([5]; aqueous with cosolvent or surfactant or cyclodextrin, vehicle % wt in water: MCT 15, emulsion, opaque, pH 4.5-5, RT): 500 µg/mL
- solubility ([5]; aqueous with cosolvent or surfactant or cyclodextrin, vehicle % wt in water: glycocholic acid 10.6, micelle solution, hazy, pH 4.5-5, RT): 2100 µg/mL
- solubility ([5]; aqueous with cosolvent or surfactant or cyclodextrin, vehicle % wt in water: lecithin 25, glycocholic acid 10.6, benzyl alcohol 4.5, ethanol 6.5, micelle solution, hazy, pH 4.5-5, RT): 8000 µg/mL
- solubility ([5]; aqueous with cosolvent or surfactant or cyclodextrin, vehicle % wt in water: lecithin 25, liposome, hazy, pH 4.5-5, RT): 800 µg/mL
- solubility ([5]; emulsion (MCT and alcohols in water), aqueous with cosolvent or surfactant or cyclodextrin, vehicle % wt in water: MCT 15, benzyl alcohol 4.5, ethanol 6.5, emulsion, opaque, pH 4.5-5, RT): 19400 µg/mL
- solubility ([5]; emulsion (glycocholic acid and MCT in water), aqueous with cosolvent or surfactant or cyclodextrin, vehicle % wt in water: glycocholic acid 10.6, MCT 15, emulsion, opaque, pH 4.5-5, RT): 3100 µg/mL
- solubility ([5]; emulsion (lecithin and MCT in water), aqueous with cosolvent or surfactant or cyclodextrin, vehicle % wt in water: lecithin 25, MCT 15, emulsion, opaque, pH 4.5-5, RT): 1400 µg/mL
- solubility ([5]; liposome (lecithin and alcohols in water), aqueous with cosolvent or surfactant or cyclodextrin, vehicle % wt in water: lecithin 25, benzyl alcohol 4.5, ethanol 6.5, liposome, hazy, pH 4.5-5, RT): 13700 µg/mL
- solubility ([5]; micelle solution (glycocholic acid and alcohols in water), aqueous with cosolvent or surfactant or cyclodextrin, vehicle % wt in water: glycocholic acid 10.6, benzyl alcohol 4.5, ethanol 6.5, micelle solution, hazy, pH 4.5-5, RT): 7600 µg/mL
- solubility ([5]; micelle solution (lecithin and glycocholic acid in water), aqueous with cosolvent or surfactant or cyclodextrin, vehicle % wt in water: lecithin 25, glycocholic acid 10.6, micelle solution, hazy, pH 4.5-5, RT): 7100 µg/mL
- pH at which most stable in an aqueous solution [6]: ~4
- solubility [1]: 20000 µg/mL (≈ 57.3 mM)
- Solubility increase over water [7]: 86 folds
- Appearance of the undiluted solutions ([7]; 20 mg/mL added to F145V): Clear & one-phase solution
- Appearance of the solutions after being diluted in an IV infusion fluid ([7]; 20 mg/mL in F145V): Clear & one-phase solution
- Appearance of the undiluted solutions ([7]; 30 mg/mL added to F145V): Clear & one-phase solution
- Appearance of the solutions after being diluted in an IV infusion fluid ([7]; 30 mg/mL in F145V): Clear & one-phase solution
- Appearance of the undiluted solutions ([7]; 40 mg/mL added to F145V): Clear & one-phase solution
- Appearance of the solutions after being diluted in an IV infusion fluid ([7]; 40 mg/mL in F145V): Slight precipitation
- Appearance of the undiluted solutions ([7]; 50 mg/mL added to F145V): Clear & one-phase solution
- Appearance of the solutions after being diluted in an IV infusion fluid ([7]; 50 mg/mL in F145V): Major precipitation
- Appearance of the undiluted solutions ([7]; 60 mg/mL added to F145V): Clear & one-phase solution
- Appearance of the solutions after being diluted in an IV infusion fluid ([7]; 60 mg/mL in F145V): Major precipitation
- solubility at 24 h ([7]; aqueous with cosolvent or surfactant or cyclodextrin): ≥ 60000 µg/mL
- solubility [3]: 8600 µg/mL (≈ 24.6 mM)
Molecule: C[C@@H](c1ncncc1F)[C@](O)(Cn1cncn1)c1ccc(F)cc1F [Voriconazole]
- Solubility according to USP definition [2]: Insoluble
- Solubility in water ([2]; water, 25° C.): about 0.7 mg/mL
- Reported solubility in water ([2]; water): 0.7 mg/mL

- solubility [1]: 500 µg/mL (≈ 0.713 mM)
- solubility [3]: 270 µg/mL (≈ 0.385 mM)
Molecule: CC[C@@H]([C@H](C)O)n1ncn(-c2ccc(N3CCN(c4ccc(OC[C@@H]5CO[C@@](Cn6cncn6)(c6ccc(F)cc6F)C5)cc4)CC3)cc2)c1=O [Posaconazole]
- Solubility according to USP definition [2]: Insoluble
- Reported solubility in water ([2]; water): <0.0001 mg/mL

- solubility [1]: 9000 µg/mL (≈ 39.4 mM)
- solubility [3]: 4850 µg/mL (≈ 21.2 mM)
Molecule: Oc1ccc(C=Cc2cc(O)cc(O)c2)cc1 [Resveratrol]
- Solubility according to USP definition [2]: Insoluble
- Reported solubility in water ([2]; water): <0.0001 mg/mL
